Results taken from PubChem BioAssay (NCI).
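Briefly, cells in 96-well plates were exposed to five compound concentrations for 48 h, and endpoints were estimated by linear interpolation. TGI: total growth inhibition.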

Experiments:
Experiment in all cases: DTP human tumour cell line panel, 48 h
RXF 393 renal = tested on: RXF 393 renal
KM12 colon = tested on: KM12 colon
SW-620 colon = tested on: SW-620 colon
NCI-H23 lung = tested on: NCI-H23 lung
OVCAR-3 ovarian = tested on: OVCAR-3 ovarian
HS 578T breast = tested on: HS 578T breast
NCI/ADR-RES ovarian = tested on: NCI/ADR-RES ovarian
TK-10 renal = tested on: TK-10 renal
CAKI-1 renal = tested on: CAKI-1 renal
SF-268 CNS = tested on: SF-268 CNS
MOLT-4 leukemia = tested on: MOLT-4 leukemia
BT-549 breast = tested on: BT-549 breast
UACC-257 melanoma = tested on: UACC-257 melanoma
SK-MEL-28 melanoma = tested on: SK-MEL-28 melanoma
COLO 205 colon = tested on: COLO 205 colon
UACC-62 melanoma = tested on: UACC-62 melanoma
CCRF-CEM leukemia = tested on: CCRF-CEM leukemia
T-47D breast = tested on: T-47D breast
M14 melanoma = tested on: M14 melanoma
MALME-3M melanoma = tested on: MALME-3M melanoma
OVCAR-4 ovarian = tested on: OVCAR-4 ovarian
DU-145 prostate = tested on: DU-145 prostate
SK-MEL-2 melanoma = tested on: SK-MEL-2 melanoma
NCI-H460 lung = tested on: NCI-H460 lung
ACHN renal = tested on: ACHN renal
EKVX NSCLC = tested on: EKVX NSCLC
SNB-75 CNS = tested on: SNB-75 CNS
IGROV1 ovarian = tested on: IGROV1 ovarian
MDA-MB-231 breast = tested on: MDA-MB-231 breast
HL-60(TB) leukemia = tested on: HL-60(TB) leukemia
SK-OV-3 ovarian = tested on: SK-OV-3 ovarian
A549 NSCLC = tested on: A549 NSCLC
SK-MEL-5 melanoma = tested on: SK-MEL-5 melanoma
MDA-N = tested on: MDA-N
A498 renal = tested on: A498 renal
HCC-2998 colon = tested on: HCC-2998 colon
PC-3 prostate = tested on: PC-3 prostate
LOX IMVI melanoma = tested on: LOX IMVI melanoma
NCI-H522 lung = tested on: NCI-H522 lung
OVCAR-5 ovarian = tested on: OVCAR-5 ovarian
HT29 colon = tested on: HT29 colon
OVCAR-8 ovarian = tested on: OVCAR-8 ovarian
MDA-MB-435 = tested on: MDA-MB-435
HCT-116 colon = tested on: HCT-116 colon
786-0 renal = tested on: 786-0 renal
SNB-19 CNS = tested on: SNB-19 CNS
UO-31 renal = tested on: UO-31 renal
K-562 leukemia = tested on: K-562 leukemia
HOP-92 NSCLC = tested on: HOP-92 NSCLC
HCT-15 colon = tested on: HCT-15 colon
MCF7 breast = tested on: MCF7 breast
HOP-62 NSCLC = tested on: HOP-62 NSCLC
RPMI-8226 leukemia = tested on: RPMI-8226 leukemia
SN12C renal = tested on: SN12C renal
U251 CNS = tested on: U251 CNS
SF-295 CNS = tested on: SF-295 CNS
SR leukemia = tested on: SR leukemia
SF-539 CNS = tested on: SF-539 CNS
NCI-H226 lung = tested on: NCI-H226 lung

Compound: O=C(/C=C1\N=C(c2ccccc2)N(c2nc3ccc(Sc4ccccc4)cc3[nH]2)C1=O)/C=C/c1ccccc1
- TGI (RXF 393 renal): > 100 µM
- TGI (KM12 colon): > 100 µM
- TGI (SW-620 colon): > 100 µM
- TGI (NCI-H23 lung): > 100 µM
- TGI (OVCAR-3 ovarian): > 100 µM
- TGI (HS 578T breast): > 100 µM
- TGI (NCI/ADR-RES ovarian): 67.9 µM
- TGI (TK-10 renal): 98.2 µM
- TGI (CAKI-1 renal): > 100 µM
- TGI (SF-268 CNS): > 100 µM
- TGI (MOLT-4 leukemia): > 100 µM
- TGI (BT-549 breast): > 100 µM
- TGI (UACC-257 melanoma): > 100 µM
- TGI (SK-MEL-28 melanoma): > 100 µM
- TGI (COLO 205 colon): 30.6 µM
- TGI (UACC-62 melanoma): 85.2 µM
- TGI (CCRF-CEM leukemia): > 100 µM
- TGI (T-47D breast): 82.6 µM
- TGI (M14 melanoma): > 100 µM
- TGI (MALME-3M melanoma): > 100 µM
- TGI (OVCAR-4 ovarian): > 100 µM
- TGI (DU-145 prostate): > 100 µM
- TGI (SK-MEL-2 melanoma): 41.5 µM
- TGI (NCI-H460 lung): > 100 µM
- TGI (ACHN renal): > 100 µM
- TGI (EKVX NSCLC): > 100 µM
- TGI (SNB-75 CNS): 55.9 µM
- TGI (IGROV1 ovarian): > 100 µM
- TGI (MDA-MB-231 breast): 53.8 µM
- TGI (HL-60(TB) leukemia): 54.1 µM
- TGI (SK-OV-3 ovarian): > 100 µM
- TGI (A549 NSCLC): > 100 µM
- TGI (SK-MEL-5 melanoma): 61.3 µM
- TGI (MDA-N): 33.6 µM
- TGI (A498 renal): > 100 µM
- TGI (HCC-2998 colon): 32.5 µM
- TGI (PC-3 prostate): > 100 µM
- TGI (LOX IMVI melanoma): > 100 µM
- TGI (NCI-H522 lung): 58.2 µM
- TGI (OVCAR-5 ovarian): > 100 µM
- TGI (HT29 colon): 92.8 µM
- TGI (OVCAR-8 ovarian): > 100 µM
- TGI (MDA-MB-435): 33.9 µM
- TGI (HCT-116 colon): > 100 µM
- TGI (786-0 renal): > 100 µM
- TGI (SNB-19 CNS): > 100 µM
- TGI (UO-31 renal): > 100 µM
- TGI (K-562 leukemia): > 100 µM
- TGI (HOP-92 NSCLC): > 100 µM
- TGI (HCT-15 colon): > 100 µM
- TGI (MCF7 breast): > 100 µM
- TGI (HOP-62 NSCLC): > 100 µM
- TGI (RPMI-8226 leukemia): 60.9 µM
- TGI (SN12C renal): > 100 µM
- TGI (U251 CNS): 81.3 µM
- TGI (SF-295 CNS): > 100 µM

Compound: COc1cc(-c2cn(S(=O)(=O)c3ccc(C)cc3)c3ccccc23)nc(-c2cn(S(=O)(=O)c3ccc(C)cc3)c3ccccc23)n1
- TGI (RXF 393 renal): > 100 µM
- TGI (KM12 colon): 8.44 µM
- TGI (SW-620 colon): > 56.9 µM
- TGI (NCI-H23 lung): 0.927 µM
- TGI (OVCAR-3 ovarian): > 100 µM
- TGI (HS 578T breast): > 100 µM
- TGI (SR leukemia): > 100 µM
- TGI (NCI/ADR-RES ovarian): > 100 µM
- TGI (TK-10 renal): > 100 µM
- TGI (CAKI-1 renal): > 100 µM
- TGI (SF-539 CNS): 0.592 µM
- TGI (MOLT-4 leukemia): > 22.5 µM
- TGI (BT-549 breast): > 100 µM
- TGI (UACC-257 melanoma): > 100 µM
- TGI (SK-MEL-28 melanoma): > 55.7 µM
- TGI (COLO 205 colon): 3.31 µM
- TGI (NCI-H226 lung): > 100 µM
- TGI (UACC-62 melanoma): > 100 µM
- TGI (CCRF-CEM leukemia): 24.7 µM
- TGI (T-47D breast): > 100 µM
- TGI (M14 melanoma): 17 µM
- TGI (OVCAR-4 ovarian): > 100 µM
- TGI (DU-145 prostate): 1.85 µM
- TGI (SK-MEL-2 melanoma): > 100 µM
- TGI (NCI-H460 lung): > 100 µM
- TGI (ACHN renal): > 100 µM
- TGI (EKVX NSCLC): > 100 µM
- TGI (SNB-75 CNS): > 100 µM
- TGI (HL-60(TB) leukemia): 5.24 µM
- TGI (SK-OV-3 ovarian): > 100 µM
- TGI (A549 NSCLC): > 48.8 µM
- TGI (MDA-N): 1.88 µM
- TGI (A498 renal): > 100 µM
- TGI (HCC-2998 colon): > 100 µM
- TGI (PC-3 prostate): 38.5 µM
- TGI (LOX IMVI melanoma): > 100 µM
- TGI (NCI-H522 lung): 0.506 µM
- TGI (OVCAR-5 ovarian): 19.6 µM
- TGI (HT29 colon): 2 µM
- TGI (OVCAR-8 ovarian): > 100 µM
- TGI (MDA-MB-435): 0.47 µM
- TGI (HCT-116 colon): > 33.8 µM
- TGI (786-0 renal): > 100 µM
- TGI (SNB-19 CNS): 32.1 µM
- TGI (UO-31 renal): > 75.1 µM
- TGI (K-562 leukemia): > 100 µM
- TGI (HOP-92 NSCLC): > 60.9 µM
- TGI (HCT-15 colon): > 100 µM
- TGI (MCF7 breast): > 100 µM
- TGI (HOP-62 NSCLC): > 100 µM
- TGI (RPMI-8226 leukemia): > 100 µM
- TGI (SN12C renal): > 100 µM
- TGI (U251 CNS): 13.8 µM
- TGI (SF-295 CNS): > 91.7 µM
